Our source for the T/C values is PubChem BioAssay AID256 (DTP/NCI, 2004).

“And” between values parts separate entries of the source, which are not always exact repeats. Identical values can stand only once. Toxic doses and inconclusive results are not listed.

This assay deals with CD2F1 mice, L1210 leukemia ip, survival T/C. Briefly: NCI In Vivo Anticancer Drug Screen. Data for tumor model L1210 Leukemia (intraperitoneal) in CD2F1 (CDF1) mice. The following applies: higher = longer survival. Summed up: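 Antitumor effect is scored in animals hosting a serially transplanted tumor. Values compare compound-dosed animals against vehicle-only controls as a simple quotient.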

The mark [1] stands for this setting: endpoint: mean survival time, dose: 200.0 mg/kg/injection, schedule: Q01DX009 (ip), vehicle: saline with Tween-80.

For `O=C1CC2=C(CC(O)=CC=C2)C(=O)O1`, the T/C is, setting by setting: (endpoint: mean survival time, dose: 100.0 mg/kg/injection, schedule: Q01DX009 (ip), vehicle: saline) 101 % of control; (endpoint: mean survival time, dose: 200.0 mg/kg/injection, schedule: Q01DX009 (ip), vehicle: saline) 93 % of control.
Regarding `O=C1NCCS1`, the T/C (endpoint: mean survival time, dose: 75.0 mg/kg/injection, schedule: Q01DX001 (ip), vehicle: saline) was 98 % of control and the T/C (endpoint: mean survival time, dose: 150.0 mg/kg/injection, schedule: Q01DX001 (ip), vehicle: saline) was 104 % of control.
Consider `COC(OC(CO)C(O)S(=O)(=O)O)C(O)S(=O)(=O)O` (stereo not drawn), for which the T/C is 103 % of control (endpoint: mean survival time, dose: 50.0 mg/kg/injection, schedule: Q01DX001 (ip), vehicle: saline); 124 % of control (endpoint: mean survival time, dose: 50.0 mg/kg/injection, schedule: Q01DX009 (ip), vehicle: saline); 104 % of control (endpoint: mean survival time, dose: 50.0 mg/kg/injection, schedule: Q01DX009 (sc), vehicle: saline); 115 % of control (endpoint: mean survival time, dose: 50.0 mg/kg/injection, schedule: Q03HX016 (ip), vehicle: saline); 118 % of control (endpoint: mean survival time, dose: 100.0 mg/kg/injection, schedule: Q01DX001 (ip), vehicle: saline); 105 % of control (endpoint: mean survival time, dose: 100.0 mg/kg/injection, schedule: Q01DX009 (oral), vehicle: saline). In addition, the T/C (endpoint: mean survival time, dose: 100.0 mg/kg/injection, schedule: Q01DX009 (sc), vehicle: saline) is 101 % of control; the T/C (endpoint: mean survival time, dose: 100.0 mg/kg/injection, schedule: Q03HX008 (ip), vehicle: saline) is 160 % of control; the T/C (endpoint: mean survival time, dose: 100.0 mg/kg/injection, schedule: Q03HX016 (ip), vehicle: saline) is 153 % of control; the T/C (endpoint: mean survival time, dose: 100.0 mg/kg/injection, schedule: Q08DX002 (ip), vehicle: saline) is 109 % of control; the T/C (endpoint: mean survival time, dose: 200.0 mg/kg/injection, schedule: Q01DX009 (oral), vehicle: saline) is 92 % of control; the T/C (endpoint: mean survival time, dose: 200.0 mg/kg/injection, schedule: Q01DX009 (sc), vehicle: saline) is 101 % of control. For the same compound, the T/C (endpoint: mean survival time, dose: 200.0 mg/kg/injection, schedule: Q08DX002 (ip), vehicle: saline) was 120 % of control; the T/C (endpoint: mean survival time, dose: 400.0 mg/kg/injection, schedule: Q01DX009 (ip), vehicle: saline) was 168 % of control; the T/C (endpoint: mean survival time, dose: 400.0 mg/kg/injection, schedule: Q01DX009 (oral), vehicle: saline) is 94 % of control; the T/C (endpoint: mean survival time, dose: 400.0 mg/kg/injection, schedule: Q01DX009 (sc), vehicle: saline) was 106 % of control; the T/C (endpoint: mean survival time, dose: 800.0 mg/kg/injection, schedule: Q01DX009 (oral), vehicle: saline) is 94 % of control; the T/C (endpoint: mean survival time, dose: 800.0 mg/kg/injection, schedule: Q04DX003 (ip), vehicle: saline) was 178 % of control.
As for `Nc1cc(S(=O)(=O)c2ccc(N3CCCCC3)c(N)c2)ccc1N1CCCCC1`, the T/C was 110 % of control (endpoint: mean survival time, dose: 100.0 mg/kg/injection, schedule: Q01DX009 (ip), vehicle: saline with Tween-80) and 113 % of control under setting [1].
Take `COc1cc2c(cc1OC)C(=O)C(C)(c1ccccc1)NC2` (stereo not drawn): the T/C runs as follows: (endpoint: mean survival time, dose: 100.0 mg/kg/injection, schedule: Q04DX003 (ip), vehicle: saline with Tween-80) 96 % of control; (endpoint: mean survival time, dose: 200.0 mg/kg/injection, schedule: Q04DX003 (ip), vehicle: saline with Tween-80) 96 % of control; (endpoint: mean survival time, dose: 400.0 mg/kg/injection, schedule: Q04DX003 (ip), vehicle: saline with Tween-80) 94 % of control.
`CNCCc1ccc2cc(OC)c(OC)cc2c1`: the T/C runs as follows: (endpoint: mean survival time, dose: 25.0 mg/kg/injection, schedule: Q01DX009 (ip), vehicle: saline sonified) 104 % of control; (endpoint: mean survival time, dose: 50.0 mg/kg/injection, schedule: Q01DX009 (ip), vehicle: saline sonified) 104 % of control; (endpoint: mean survival time, dose: 100.0 mg/kg/injection, schedule: Q01DX009 (ip), vehicle: saline sonified) 104 % of control.
For the compound `Nc1ncnc2c1ncn2C1OC(CO)C(O)C1O` (stereo not drawn), the T/C is, setting by setting: (endpoint: mean survival time, dose: 3.12 mg/kg/injection, schedule: Q01DX009 (ip), vehicle: Klucel (hydroxypropylcellulose) (HPC)) 100 % of control; (endpoint: mean survival time, dose: 6.25 mg/kg/injection, schedule: Q01DX009 (ip), vehicle: Klucel (hydroxypropylcellulose) (HPC)) 100 % of control; (endpoint: mean survival time, dose: 12.5 mg/kg/injection, schedule: Q01DX009 (ip), vehicle: Klucel (hydroxypropylcellulose) (HPC)) 95 % of control; (endpoint: mean survival time, dose: 18.7 mg/kg/injection, schedule: Q01DX009 (ip), vehicle: saline) 87 % of control; (endpoint: mean survival time, dose: 18.75 mg/kg/injection, schedule: Q01DX009 (ip), vehicle: saline) 92 % of control; (endpoint: mean survival time, dose: 18.75 mg/kg/injection, schedule: Q04DX003 (ip), vehicle: saline) 97 % of control. Also, the T/C by setting is: (endpoint: mean survival time, dose: 25.0 mg/kg/injection, schedule: Q01DX009 (ip), vehicle: Klucel (hydroxypropylcellulose) (HPC)) 95 % of control; (endpoint: mean survival time, dose: 25.0 mg/kg/injection, schedule: Q04DX003 (ip), vehicle: saline) 100 % of control; (endpoint: mean survival time, dose: 37.5 mg/kg/injection, schedule: Q01DX009 (ip), vehicle: saline) 86 % of control and 96 % of control; (endpoint: mean survival time, dose: 37.5 mg/kg/injection, schedule: Q04DX003 (ip), vehicle: saline) 98 % of control; (endpoint: mean survival time, dose: 50.0 mg/kg/injection, schedule: Q04DX003 (ip), vehicle: saline) 100 % of control; (endpoint: mean survival time, dose: 75.0 mg/kg/injection, schedule: Q01DX009 (ip), vehicle: saline) 96 % of control. Also, the T/C was 120 % of control (endpoint: mean survival time, dose: 110.0 mg/kg/injection, schedule: Q03HX024 (ip), vehicle: saline with Tween-80); 102 % of control (endpoint: mean survival time, dose: 118.0 mg/kg/injection, schedule: Q01DX005 (ip), vehicle: water); 104 % of control (endpoint: mean survival time, dose: 118.0 mg/kg/injection, schedule: Q01DX009 (ip), vehicle: water); 96 % of control and 100 % of control (endpoint: mean survival time, dose: 150.0 mg/kg/injection, schedule: Q01DX009 (ip), vehicle: saline); 99 % of control (endpoint: mean survival time, dose: 177.0 mg/kg/injection, schedule: Q01DX005 (ip), vehicle: water); 117 % of control (endpoint: mean survival time, dose: 177.0 mg/kg/injection, schedule: Q01DX009 (ip), vehicle: water). Besides, the T/C runs as follows: under setting [1], 117 % of control; (endpoint: mean survival time, dose: 200.0 mg/kg/injection, schedule: Q03HX024 (ip), vehicle: saline with Tween-80) 124 % of control; (endpoint: mean survival time, dose: 266.0 mg/kg/injection, schedule: Q01DX005 (ip), vehicle: water) 106 % of control; (endpoint: mean survival time, dose: 266.0 mg/kg/injection, schedule: Q01DX009 (ip), vehicle: water) 112 % of control; (endpoint: mean survival time, dose: 300.0 mg/kg/injection, schedule: Q01DX009 (ip), vehicle: saline with Tween-80) 114 % of control; (endpoint: mean survival time, dose: 300.0 mg/kg/injection, schedule: Q01DX009 (ip), vehicle: saline) 119 % of control and 97 % of control. Also, the T/C runs as follows: (endpoint: mean survival time, dose: 400.0 mg/kg/injection, schedule: Q01DX005 (ip), vehicle: water) 108 % of control; (endpoint: mean survival time, dose: 400.0 mg/kg/injection, schedule: Q01DX009 (ip), vehicle: water) 112 % of control; (endpoint: mean survival time, dose: 450.0 mg/kg/injection, schedule: Q01DX009 (ip), vehicle: saline with Tween-80) 114 % of control; (endpoint: mean survival time, dose: 600.0 mg/kg/injection, schedule: Q01DX005 (ip), vehicle: water) 108 % of control; (endpoint: mean survival time, dose: 600.0 mg/kg/injection, schedule: Q01DX009 (ip), vehicle: saline) 105 % of control; (endpoint: mean survival time, dose: 600.0 mg/kg/injection, schedule: Q01DX009 (ip), vehicle: water) 114 % of control. The T/C is 113 % of control (endpoint: mean survival time, dose: 900.0 mg/kg/injection, schedule: Q01DX005 (ip), vehicle: water); 109 % of control (endpoint: mean survival time, dose: 900.0 mg/kg/injection, schedule: Q01DX009 (ip), vehicle: water); 111 % of control (endpoint: median survival time, dose: 1.56 mg/kg/injection, schedule: Q01DX009 (ip), vehicle: saline); 109 % of control (endpoint: median survival time, dose: 3.12 mg/kg/injection, schedule: Q01DX009 (ip), vehicle: saline); 110 % of control (endpoint: median survival time, dose: 6.25 mg/kg/injection, schedule: Q01DX009 (ip), vehicle: saline); 112 % of control (endpoint: median survival time, dose: 11.25 mg/kg/injection, schedule: Q03HX012 (ip), vehicle: saline). Also, the T/C is 108 % of control (endpoint: median survival time, dose: 12.5 mg/kg/injection, schedule: Q01DX009 (ip), vehicle: saline); 107 % of control (endpoint: median survival time, dose: 22.5 mg/kg/injection, schedule: Q03HX012 (ip), vehicle: saline); 115 % of control (endpoint: median survival time, dose: 25.0 mg/kg/injection, schedule: Q01DX009 (ip), vehicle: saline); 112 % of control (endpoint: median survival time, dose: 45.0 mg/kg/injection, schedule: Q03HX012 (ip), vehicle: saline); 79 % of control (endpoint: median survival time, dose: 50.0 mg/kg/injection, schedule: Q01DX009 (ip), vehicle: saline); 116 % of control (endpoint: median survival time, dose: 90.0 mg/kg/injection, schedule: Q03HX012 (ip), vehicle: saline). The T/C (endpoint: median survival time, dose: 180.0 mg/kg/injection, schedule: Q03HX012 (ip), vehicle: saline) is 122 % of control.
